Test results published in ChEMBL document CHEMBL2390855, “Labdane-type diterpenoids from the fruits of Vitex trifolia” (J Nat Prod, 2013).

Tests used:
Assay type in all cases: functional, cell-based
HL-60 = assay: Cytotoxicity against human HL60 cells after 72 hrs by MTT assay; settings: HL-60, 72 h
ZR-75-30 = assay: Cytotoxicity against human ZR75-30 cells after 72 hrs by MTT assay; settings: ZR-75-30, 72 h
HCT-116 = assay: Cytotoxicity against human HCT116 cells after 72 hrs by MTT assay; settings: HCT-116, 72 h
A549 = assay: Cytotoxicity against human A549 cells after 72 hrs by MTT assay; settings: A549, 72 h

Measured: IC50

C[C@@H]1C[C@@H](O)[C@H]2C(C)(C)CCC[C@]2(C)[C@@]1(O)CCC1=CC(=O)OC1
> 5 µg/mL: all assays above

CC1=C(CC[C@@H](C)C(=O)CCC2=CC(=O)OC2)C(C)(C)CCC1
> 5 µg/mL: all assays above

CO[C@@H]1C[C@@]2(CC[C@@]3(O2)[C@H](C)CC[C@H]2C(C)(C)[C@@H](OC(C)=O)CC[C@@]23C)[C@H](OC)O1 (relative stereo)
> 5 µg/mL: all assays above

CC(=O)O[C@@H]1CC(C)=C(CCC2=CC(=O)OC2)[C@@]2(C)CCCC(C)(C)[C@H]12 (relative stereo)
> 5 µg/mL: all assays above

C[C@@H]1CC=C2C(C)(C)CCC[C@]2(C)[C@@]1(O)CCC1=CC(=O)OC1 (relative stereo)
> 5 µg/mL: all assays above

C[C@@H]1C[C@@H](O)[C@H]2C(C)(C)CCC[C@]2(C)[C@@]12CC[C@]1(COC(=O)C1)O2 (relative stereo)
> 5 µg/mL: all assays above

C[C@@H]1CC=C2C(C)(C)CCC[C@]2(C)[C@@]12CC[C@]1(COC(=O)C1)O2 (relative stereo)
> 5 µg/mL: all assays above

CC(=O)O[C@@H]1C[C@@H](C)[C@]2(CC[C@]3(COC(=O)C3)O2)[C@@]2(C)CCCC(C)(C)[C@H]12 [PREVITEXILACTONE]
> 5 µg/mL: all assays above

CC(=O)O[C@@H]1C[C@@H](C)[C@](O)(CCc2ccoc2)[C@@]2(C)CCCC(C)(C)[C@H]12 [ROTUNDIFURAN]
> 5 µg/mL: all assays above

CC(=O)O[C@@H]1C[C@@H](C)[C@](O)(CCC2=CC(=O)OC2O)[C@@]2(C)CCCC(C)(C)[C@H]12 (stereo partly drawn) [VITEAGNUSIN I]
> 5 µg/mL: all assays above

CC(=O)O[C@@H]1C[C@@H](C)[C@](O)(CCC2=CC(=O)OC2)[C@@]2(C)CCCC(C)(C)[C@H]12 [VITEXILACTONE]
> 5 µg/mL: all assays above

CO[C@H]1C[C@@]2(CC[C@@]3(O2)[C@H](C)CC[C@H]2C(C)(C)[C@@H](OC(C)=O)CC[C@@]23C)[C@H](OC)O1 [VITEXTRIFOLIN B]
> 5 µg/mL: all assays above
